These results are taken from US9789072B2, “Therapeutic agents for use in the propylaxis and/or treatment of hyperkinetic movement disorders” (SOM INNOVATION BIOTECH, S.L., priority 2013, dated 2017).

SMILES strings stand for the structures. Where two headings read alike, the source gives them in different places.

The target in the experiment is T1, VMAT2 (Rattus norvegicus, UniProt Q01827).
T1 construct: the VMAT2 present in isolated cerebral cortical vesicles; from tissue; host or cells: rat cerebral cortex, synaptic vesicles purified by differential centrifugation
The experiment is described as follows: VMAT2 functional assay ([3H]-dopamine uptake into isolated vesicles). Conditions: rat cortical vesicles, [3H]-dopamine 30 nM, 30 min pre-incubation, 15 min uptake, room temperature. In kind it is biochemical. The procedure: VMAT2 Functional Assay determines the interaction between the compounds of the present invention and the VMAT2 present in isolated cerebral cortical vesicles.
Transporter Source: Rat cortical vesicles
Buffers: 100 mM potassium tartrate, 1.7 mM ascorbic acid, 0.05 mM EGTA, 0.1 mM EDTA, 2 mM Magnesium-ATP and 25 mM HEPES.
RadioLigand: • Monoamine: [3H]-Dopamine • Final ligand concentration: 30 nM
Vmax (transport rate): 1800 fmol/mg tissue/min
Positive reference-control: • Reserpine • Concentration: 10 μM
(1) Rat cortical vesicles were purified using differential centrifugation, and the vesicles obtained were diluted in the assay buffer and pre-incubated with the positive-reference-control, the comparative sample or a compound of the invention for 30 minutes at room temperature.
(2) Uptake begins with the addition of [3H]-dopamine and the mixture is allowed to incubate for 15 minutes at room temperature.
(3) After that time, the reaction was stopped by vacuum filtration, and the amount of radioactivity of the radiolabeled [3H]-dopamine trapped onto the filters was determined.
(4) The radioactivity of the [3H]-dopamine trapped was determined using liquid scintillation spectrophotometry (Beckman and Perkin Elmer). The amount of radioactivity obtained with the comparative sample or a compound of the invention was compared with the amount of radioactivity obtained with the positive-reference control (reserpine).
The IC50 value is converted to an absolute inhibition constant Ki using the Cheng-Prusoff equation. Two separate independent experiments were performed.

The mark [1] stands for this setting: Experiment 1, read-out: IC50 (nM) Experiment 1.

T1 sequence (Q01827 whole entry): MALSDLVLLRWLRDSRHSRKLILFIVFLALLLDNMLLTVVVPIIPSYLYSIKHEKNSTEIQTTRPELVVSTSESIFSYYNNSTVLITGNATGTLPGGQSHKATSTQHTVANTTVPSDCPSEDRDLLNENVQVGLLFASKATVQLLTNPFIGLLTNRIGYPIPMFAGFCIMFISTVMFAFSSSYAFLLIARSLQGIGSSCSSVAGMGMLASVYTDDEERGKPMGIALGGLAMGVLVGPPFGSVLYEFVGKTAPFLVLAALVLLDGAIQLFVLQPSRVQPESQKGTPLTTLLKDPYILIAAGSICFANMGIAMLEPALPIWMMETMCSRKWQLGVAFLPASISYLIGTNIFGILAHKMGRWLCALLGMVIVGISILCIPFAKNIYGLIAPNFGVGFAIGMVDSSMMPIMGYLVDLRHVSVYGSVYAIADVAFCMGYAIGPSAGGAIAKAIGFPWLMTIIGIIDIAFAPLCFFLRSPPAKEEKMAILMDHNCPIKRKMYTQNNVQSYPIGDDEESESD

By IC50 is commonly meant the midpoint of a concentration-inhibition curve. Take `COc1ccc(CCNCC(O)COc2cccc(C)c2)cc1OC` (racemic) [Bevantolol (IA), (RS)-[2-(3,4-dimethoxyphenyl)ethyl][2-hydroxy-3-(3-methylphenoxy)propyl]amine]: the IC50 is, setting by setting: under setting [1], 42.8 nM; (Experiment 2, read-out: IC50 (nM) Experiment 2) 63 nM. As for `CC(COc1ccccc1)N(CCCl)Cc1ccccc1` (racemic) [Phenoxybenzamine (IC), (RS)—N-benzil-N-(2-chloroetyl)-1-phenoxy-propan-2-amine], under setting [1], the IC50 is 58.1 nM. With `C[C@@H](NCCCc1cccc(C(F)(F)F)c1)c1cccc2ccccc12` [Cinacalcet (IB)], the IC50 under setting [1] was determined as 44.6 nM.
